Measurements taken from paper PMC6804243, “Small-Molecule Inhibition of UBE2T/FANCL-Mediated Ubiquitylation in the Fanconi Anemia Pathway” (ACS Chemical Biology, 2019).
Where two headings read alike, the source gives them in different places.

Target: T1, UBE2T/FANCLRING (ubiquitylation of GST-FANCLRING) (Homo sapiens, UniProt Q9NW38)
T1 sequence (Q9NW38 275-375 limits assumed): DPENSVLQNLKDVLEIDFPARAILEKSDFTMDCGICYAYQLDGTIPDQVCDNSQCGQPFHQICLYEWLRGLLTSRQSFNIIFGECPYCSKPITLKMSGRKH
Assay: biochemical
Settings: for LE: ligand efficiency = 1.4(–logIC50)/HAC; for inhibition at 20 µM: read-out: Primary screen % Inhibition (20 M)
Text: To identify small-molecule inhibitors of the FA pathway, we developed a high-throughput screen (HTS) compatible assay based on the FA ubiquitylation cascade (see Figure 1a, as well as Figure S1 in the Supporting Information). Given the complexity of the full FA ubiquitylation cascade, we constructed a simplified ubiquitylation reaction that would be robust for HTS purposes yet still provide many relevant protein species for small molecules to interact with. The recombinant protein assay developed used homogeneous time-resolved fluorescence (HTRF) and contained Cy5-labeled ubiquitin, the E1 enzyme UBE1, the E2 enzyme UBE2T, and the RING domain (residues 275–375) of the E3 FANCL (FANCLRING). FANCLRING was used as a surrogate substrate for ubiquitylation in the absence of the FA core and FANCD2/FANCI complexes.
Figure 1 Screening for inhibitors of the FA pathway. (a) Schematic of the HTRF ubiquitylation assay. Ubiquitylation of GST-tagged E3 (FANCLRING) by the E2 (UBE2T) places Cy5-labeled ubiquitin in close proximity to the anti-GST Tb cryptate. Excitation of the Tb cryptate donor results in FRET to the Cy5 acceptor. Simultaneous monitoring of the donor emission (620 nm) and acceptor emission (665 nm) allows for determination of the 665/620 ratio. (b) HTRF screen results showing average inhibition (n = 2) produced by compounds at 20 μM (in-house diversity library; 10 111 compounds) and 10 μM (Selleckchem epigenetic library; 119 compounds). Numbers given in parentheses represent the number of compounds per inhibition threshold.
Purified protein was concentrated using a Vivaspin-6 concentrator with a 10 kDa MW cut-off (Vivascience) and flash-frozen in small aliquots for storage at […]
Cy5 labelling of ubiquitin. To a 5 mg/mL solution of recombinant human ubiquitin (Boston Biochem) in 0.1 M NaHCO3 pH 8.3, was added a 4-fold molar excess of Cyanine5 NHS ester (Lumiprobe). The reaction was incubated at 23 °C for 4 hours in the dark. The protein was separated from unreacted dye by passage through a PD-10 desalting column (GE Healthcare) equilibrated with PBS. Purified protein was concentrated using a Vivaspin-6 concentrator with a 3 kDa MW cut-off (Vivascience) and flash-frozen in small aliquots for storage […]
Homogeneous Time-Resolved Fluorescence (HTRF) Assay. GST-FANCLRING (200 nM) was incubated with anti-GST Tb (CisBio, #61GSTTL) (2.5 ng final) at room temperature for 30 minutes in assay buffer (50 mM Tris-HCl pH 8.0, 1 mM TCEP, 5 mM MgCl2, 0.005% Tween-20). Meanwhile, 10 μL of UBE2T in assay buffer (or assay buffer alone for no enzyme controls) was incubated in a white 384-well plate (Corning) with 20 nL DMSO or compound in DMSO. After 30 minutes, the GST-RINGRING solution was added to an equal volume solution containing His-UBE1 (Boston Biochem) (16 nM), Cy5-ubiquitin (400 nM), ATP (0.8 mM) in assay buffer. 10 μL of this solution was immediately added to each well of the 384 -well plate containing UBE2T or buffer. F inal concentrations: His -UBE1 (4 nM), UBE2T (6 nM), GST -RINGRING (50 nM), Cy5-ubiquitin (100 nM), ATP (0.2 mM), compound (10 or 20 μM) in 0.1 %
(v/v) DMSO. After a 10 minute incubation at 23 °C, 5 µL of a 50 mM EDTA solution were added to each well to stop the reaction. Signal was measured at λEx 340 nm and λEm 665 nm and 620 nm using a PHERAstar FS plate reader
(BMG Labtech). A ratio was calculated as [λEm(665)/λEm(620)] × 104 for each well and this was used to determine the percent inhibition for test compounds.
Gel-based ubiquitylation assays. Assays were carried out in a total volume of 10 µL containing 20 nM His6-UBE1 (Boston Biochem), 50 nM UBE2T, 250 nM GST-E3 and 500 nM biotinylated ubiquitin (Boston Biochem) in buffer (50

[1] = library stock, 10-point dose-response, read-out: Primary screen IC50
[2] = printed beside the structures in Figure S3, read-out: IC50 (Figure S3)

inhibition at 20 µM (primary screen, compound at 20 μM (head prints '20 M'), n = 2) [%]	SMILES	IC50 [1] [µM]	LE	IC50 [2] [µM]	inhibition at 20 µM [%]
–	NCCN1C(=O)CC[C@H]2CN(Cc3cccc(-c4ccco4)c3)CC[C@H]21 [CU1]	15.2	0.23	56	48.4
–	CCN1CCN(c2cc(C)nc3nc(CN4CCCCC4C)nn23)CC1 (stereo not shown) [CU2]	8.4	0.26	14.8	63.4
–	Cc1nnc(N(C)CC2CCN(CC(C)O)CC2)c(C#N)c1C (stereo not shown) [CU9]	31.4	0.26	45.4	48.2
107	NC(=O)[C@@H]1CCCN1C(=O)c1cc(-n2cccc2)ccc1Cl [CU12]	11.5	0.32	9.9	–
